# Measured values: US9408854B2, “Methods and systems for pharmacogenomic treatment of cardiovascular conditions” (ROSTAQUO S.P.A., priority 2009, dated 2016)
# What was measured:
# Na—K Pump and cSrc = test: Correction of the effect of mutated adducin or ouabain on Na-K pump and cSrc in animals; assay type: in vivo; settings: nanomoles doses in animals
# hypertensive patients = test: Pharmacogenomic study: change of office systolic blood pressure (DSBP5_0) after 5 weeks of rostafuroxin vs placebo, by genotype; assay type: in vivo, human; settings: 0.05 to 0.50 mg/day vs 1.5 to 5 mg/day
compound,measurement,setting,value
"C[C@]12CC[C@H](O)C[C@H]1CC[C@@H]1[C@@H]2CC[C@]2(C)[C@@](O)(c3ccoc3)CC[C@]12O [rostafuroxin, 17β-(3-furyl)-5β-androstane-3β,14β,17α-triol]",correction of the effect of mutated adducin or ouabain on Na—K Pump and cSrc,Na—K Pump and cSrc,"able to selectively correct the effect of mutated adducin or ouabain on Na—K Pump and cSrc, without blocking the effect of wild adducin"
same,"drop of night blood pressure, low doses vs high doses",hypertensive patients,relevantly higher drop of night blood pressure as compared to high doses
